Data from patent US20040023983A1, “Methods of use of fluoroquinolone compounds against pathogenic helicobacter bacteria” (priority 2003, published 2004).
In brackets after ≈: the same amount, converted by molar mass.

How the values were obtained:
H. pylori = test: NCCLS agar dilution MIC, 21 H. pylori strains; format: cell-based, Helicobacter pylori; conditions: 21 isolates of H. pylori, read at 72 hours; for MIC50 / MIC90: Helicobacter pylori
Text: (§1) The aim of the present invention is to evaluate the susceptibility of H. pylori to the new fluoroquinolone gemifloxacin (SB-265805). Twenty-one (21) H. pylori strains were obtained, including 16 clinical isolates CCUG 39297, CCUG 30988 (Lelwala-Guruge, J., Ljungh, A., & Wadstrom, T. 1992. APMIS 100, 908-13), CCUG 17875 (Lelwala-Guruge, J., Ljungh, A., & Wadstrom, T. 1992. APMIS 100, 908-13; Ilver, D., Arnqvist, A., Ogren, J., Frick, I. M., Kersulyte, D., Incecik, E. T. et al. 1998. Science 279, 373-7), CCUG 38771, CCUG 15818, CCUG 17874 (Lelwala-Guruge, J., Ljungh, A., & Wadstrom, T. 1992. APMIS 100, 908-13; O'Toole, P. W., Logan, S. M., Kostrzynska, M., Wadström, T., & Trust, T. J. 1991. Journal of Bacteriology 173, 505-513), CCUG 19087, CCUG 30987 (Lelwala-Guruge, J., Ljungh, A., & Wadstrom, T. 1992. APMIS 100, 908-13), CCUG 38772, CCUG 18943, CCUG 18295, CCUG 36718, CCUG 36719, CCUG 35899, CCUG 36720, CCUG 39924; and laboratory strains Not18, Not34, ATCC 43504, SS1, and ATCC 700392/26695. These strains include gastric biopsy isolates from the USA, Sweden, France, Belgium, UK, South Africa, and Australia Two of the clinical isolates are reported to have the cagA^+ genotype (strains CCUG 17874 and CCUG 17875) and three to be cagA^− (strains CCUG 36720, CCUG 36719, and CCUG 30988), but the cag genotype of the rest is unknown. […] The activities of amoxycillin, tetracycline and metronidazole against H. pylori ATCC 43504 were also tested as controls. The agar plates were inoculated using a Steers replicator and read at 72 hours.

H. pylori ATCC 43504 = test: NCCLS agar dilution MIC, control antibiotics against quality control strain; format: cell-based; conditions: Helicobacter pylori, ATCC43504, read at 72 hours
Text: as §1

SMILES: CO/N=C1\CN(c2nc3c(cc2F)c(=O)c(C(=O)O)cn3C2CC2)CC1CN (racemic) [Gemifloxacin, (R,S)-7-(3-aminomethyl-4-methoxyiminopyrrolidin-1-yl)-1-cyclopropyl-6-fluoro-4-oxo-1,4-dihydro-1,8-naphthyridine-3-carboxylic acid]
- MIC Range (H. pylori): 0.03 to 1.0 µg/mL
- MIC50 (H. pylori): 0.06 µg/mL (≈ 0.154 µM)
- MIC90 (H. pylori): 0.13 µg/mL (≈ 0.334 µM)

SMILES: COc1c(N2CCNC(C)C2)c(F)cc2c(=O)c(C(=O)O)cn(C3CC3)c12 (stereo not drawn) [Gatifloxacin]
- MIC Range (H. pylori): 0.03 to 0.5 µg/mL
- MIC50 (H. pylori): 0.13 µg/mL (≈ 0.346 µM)
- MIC90 (H. pylori): 0.13 µg/mL (≈ 0.346 µM)

SMILES: C[C@H]1COc2c(N3CCN(C)CC3)c(F)cc3c(=O)c(C(=O)O)cn1c23 [Levofloxacin]
- MIC Range (H. pylori): 0.13 to 2.0 µg/mL
- MIC50 (H. pylori): 0.25 µg/mL (≈ 0.692 µM)
- MIC90 (H. pylori): 0.5 µg/mL (≈ 1.38 µM)

SMILES: COc1c(N2C[C@@H]3CCCN[C@@H]3C2)c(F)cc2c(=O)c(C(=O)O)cn(C3CC3)c12 [Moxifloxacin]
- MIC Range (H. pylori): 0.13 to 2.0 µg/mL
- MIC50 (H. pylori): 0.25 µg/mL (≈ 0.623 µM)
- MIC90 (H. pylori): 0.5 µg/mL (≈ 1.25 µM)

SMILES: CC1(C)S[C@@H]2[C@H](NC(=O)[C@H](N)c3ccc(O)cc3)C(=O)N2[C@H]1C(=O)O [amoxycillin]
- MIC (H. pylori ATCC 43504): 0.06 µg/mL (≈ 0.164 µM)

SMILES: Cc1ncc([N+](=O)[O-])n1CCO [metronidazole]
- MIC (H. pylori ATCC 43504): 256 µg/mL (≈ 1500 µM)

SMILES: CN(C)[C@@H]1C(O)=C(C(N)=O)C(=O)[C@@]2(O)C(O)=C3C(=O)c4c(O)cccc4[C@@](C)(O)[C@H]3C[C@@H]12 [tetracycline]
- MIC (H. pylori ATCC 43504): 1 µg/mL (≈ 2.25 µM)
